Reference: patent US9901584B2, “Methods of cosmetically treating skin conditions with a cosmetic personal cleansing composition” (The Procter & Gamble Company, priority 2015, dated 2018)

Test system: Unhealthy Skin Signature
Details: normal human keratinocytes, various doses of zinc pyrithione, 6-24 hours

Substance: zinc pyrithione
- Linkage to Unhealthy Skin Signature gene expression pattern: negative linkage
